Values after ≈ are worked out from the molar mass of the structure shown. Read-outs that look alike come from different tables or passages of the source.

In series [1] the test system is durch TNB (Trinitrobenzoesulfonsäure) ausgelösten Colitis der Ratte. In words: Histological proof of the anti-inflammatory effect in TNB-induced colitis of the rat. Conditions: 25 mg TNB rektal, 5 mg oral über Schlundsonde im Abstand von 8 Stunden, 3. - 21. Tag, TNB alone: Grad II - III. Type of series: in vivo. The procedure: (§1) Bei 10 Ratten (Körpermaße: 200-250 g) wurde durch rektale Instillation von 25 mg TNB (in 0,25 ml 30%iger ethanolischer Lösung) eine Colitis ausgelöst. Eine in gleicher Weise behandelte Gruppe von 10 Tieren erhielt vom 3. - 21. Tage nach der TNB-Gabe im Abstand von 8 Stunden 5 mg Oxipurinol-Na, das in 0,5 ml Glucoselösung aufgelöst war, oral über eine Schlundsonde verabreicht. Eine weitere Gruppe von 10 Tieren erhielt lediglich 0,25 ml der 30%igen Ethanollösung rektal instilliert, und weitere 10 Tiere dienten als Kontrolle.
Der Darm (Rectum) der mit TNB behandelten Tiere zeigte eine chronisch-rezidivierende Colitis Grad II - III. Bei einigen Tieren wurden inkomplette Erosionen, insbesondere in den über den Lymphfollikeln gelegenen Stellen des Oberflächenepithels, sehr dichte Infiltrate in der Submukosa und reichlich perivaskulär gelegene Mastzellen im umgebenden Fettgewebe, beobachtet. Die mit TNB und Oxipurinol-Na behandelten Tiere zeigten deutlich geringer ausgeprägte Entzündungemerkmale (Grad I): eine geringfügige Vermehrung von Lymphozyten und Mastzellen sowie ein geringes Ödem.

Series [2] has the same test system. In words: Biochemical proof of the anti-inflammatory effect in TNB-induced colitis of the rat (purine nucleotides, TBA-RS in gut samples). Conditions: 21. Tag, 5 mg oral every 8 h, day 3-21. Type of series: in vivo. The procedure:
as §1
Bei den im Beispiel 13 charakterisierten Tiergruppen wurden am 21. Tag Darmproben auf den Gehalt an Purinnukleotiden und Lipidperoxydationsprodukten (Thiobarbitursäure-reaktive Substanzen: TBA-RS) hin untersucht.
Die nach TNB-Applikation erhöhte Konzentration von TBA-RS wird durch Oxipurinol-Na-Zugabe auf46 % gesenkt und liegt damit sogar noch unter den Kontrollwerten. Danach verhindert Oxipurinol-Na den durch TNB ausgelösten Abfall der Adenin-'und Guaninnukleotide und die gesteigerte Lipidperoxydation.

The nature of a further series: pH of aqueous solution. Type of series: physicochemical. The following applies: 5%ige wäßrige Lösung. From the text:
Aus der DE-OS 37 07 999 ist bekannt, Oxipurinol zur Verminderung von Zellschäden nach der Ischämie und vor der Reperfusion zu verwenden, und zwar durch intravenöse Verabreichung eines Alkalimetallsalzes, insbesondere des Natriumsalzes. Aus den Beispielen geht jedoch hervor, daß nicht das reine Natriumsalz verwendet wurde, sondern ein Gemisch aus Salz und überschüssiger Natronlauge. Dies ergibt sich vor allem aus den pH-werten der ca. 1 bis 2%-igen Lösungen von 11,5 bzw. 12,0. Das jetzt erstmals von der Anmelderin in reiner und kristalliner Form hergestellte Natriumsalz besitzt in 5%-iger wäßriger Lösung einen pH-wert von 9,7 und kristallisiert als Monohydrat aus.
(§2) Bei diesem Natrium-Salz handelt es sich um Mono-Natriumoxipurinol-Monohydrat. Das Salz ist weiß und kristallisiert in feinen Nadeln. In wäßriger Lösung reagiert es alkalisch, eine 5%ige Lösung besitzt einen pH-Wert von 9,7. Seine Löslichkeit beträgt: in Wasser bei 25°C 15,8 g/l 0°C 7,2 g/l in Methanol/Wasser (3:1 Vol.) bei 25°C ca. 2,0 g/l

The nature of series [3]: Stability of the solid salt (air, drying temperature). Type of series: physicochemical. The procedure: Das Salz ist luftbeständig und verträgt Trockentemperaturen bis etwa 70°C. Aus seiner heißen Lösung läßt sich mit verdünnter Salzsäure (10%ig) Oxipurinol fast quantitativ ausfällen.
A further series in a line: Solubility. Type of series: physicochemical. Conditions: read-out: Löslichkeit. Here is the method: as §2
The conditions of series [4]: general statement, no solvent or temperature given; cited from earlier work.

In the case of `O=c1[nH]c(=O)c2cn[nH]c2[nH]1` [Oxipurinol-Natrium, Mono-Natriumoxipurinol-Monohydrat], the “Entzündungsmerkmale / Colitis Grad (Rectum, histologisch)” value in series [1] was “Grad I”. For the same compound, in series [2], the “Gehalte an Adenin- und Guaninnukleotiden (Darmproben) versus Ethanol- und Kontrollgruppe” value is recorded as “unterschieden sich nicht signifikant”. The pH-Wert in the series “pH of aqueous solution” was 9,7. Also, the Luftbeständigkeit entry in series [3] was “luftbeständig”. In series [3] (drying), the “verträgt Trockentemperaturen” value was at most 70 °C. The solubility is about 2000 µg/mL (≈ 13.1 mM) in “Solubility” (methanol/water (3:1 vol.), organic solvent or mixture, in Methanol/Wasser (3:1 Vol.) bei 25°C); 7200 µg/mL (≈ 47.3 mM) in the series “Solubility” (water, in Wasser bei 0°C); 15800 µg/mL (≈ 104 mM) in the series “Solubility” (water, in Wasser bei 25°C).

`O=c1[nH]c(=O)c2c[nH]nc2[nH]1` [Oxipurinol]: the “Löslichkeit (in words)” value in series [4] is “sehr schwer löslich”.
